Assay results: publication PMC3462775 (PLoS ONE, 2012)
Values after ≈ are worked out from the molar mass of the structure shown. Bridge positions count the residues as written; N and C are the ends. Square brackets hold non-standard residues; d marks the D form. Peptide text beside a SMILES is read from it. I, II: the chains in the order shown. βAla = NCCC(=O)O

What was measured:
E.coli W03BG0025 = assay type: cell-based, Escherichia coli
Description: (§1) MICs were determined using a standard microdilution assay as recommended by the Clinical and Laboratory Standards Institute. Assays were performed in triplicate using cation-supplemented Mueller-Hinton (MH) broth (Becton Dickinson, Franklin Lakes, NJ, USA) and a bacterial inoculum of 5x10^4 CFU/well, in a final volume of 100 µl. The tested concentrations ranged from 0.1 µM to 24 µM for both peptides. Results were recorded after 18–20 h of incubation at 37°C.

S.aureus 3851 = assay type: cell-based, Staphylococcus aureus
Description: as §1

S.aureus USA 300 = assay type: cell-based, Staphylococcus aureus
Description: as §1

E.coli ATCC 25922 = experiment: MIC, standard microdilution assay; assay type: cell-based, Escherichia coli; settings: Reference strain, wild type; CLSI microdilution, cation-supplemented Mueller-Hinton broth, 5x10^4 CFU/well, 18–20 h at 37°C, triplicate
Description: as §1

[1] = test system: S. aureus ATCC 25923 biofilm; assay type: cell-based, Staphylococcus aureus; settings: ATCC 25923, 2 h
Description: (§2) Biofilm formation was performed by adapting the procedure described in [39] using the Calgary Biofilm Device (Innovotech, Innovotech Inc. Edmonton, Canada). Briefly, 96-well plates containing the bacterial inoculum were sealed with lids bearing 96 pegs on which the biofilm could build up. The plates were placed in an orbital incubator at 35°C (for P. aeruginosa and E. coli) or 37°C (for S. aureus) for 20 h under agitation at 125 rpm. Once biofilms formed, the lids were removed from the plates and the pegs were rinsed twice with phosphate buffered saline (PBS) to remove planktonic cells. The peg-lid was then transferred to a 96-well challenge microtiter plate, each well containing 200 µl of a twofold serial dilution of each peptide in LB medium. The challenge plate was incubated at 37°C for 2 hours. Peptide activity on pre-formed biofilm was evaluated by two independent methods: (i) visual observation of bacterial growth and (ii) counting of living bacterial cells after peptide treatment. In the first case, the peg-lid was removed from the challenge plate, rinsed with PBS and used to cover a 96-well recovery microtiter plate, each well containing 200 µl LB medium. […] Colony forming units (CFU) were expressed as percentage with respect to control (peptide-untreated biofilms). […]

[2] = test system: S. aureus ATCC 25923 biofilm; assay type: cell-based, Staphylococcus aureus; settings: for Minimum biofilm eradication concentration (MBEC): ATCC 25923, 20 h
Description: (§3) Biofilm formation was performed by adapting the procedure described in [39] using the Calgary Biofilm Device (Innovotech, Innovotech Inc. Edmonton, Canada). Briefly, 96-well plates containing the bacterial inoculum were sealed with lids bearing 96 pegs on which the biofilm could build up. The plates were placed in an orbital incubator at 35°C (for P. aeruginosa and E. coli) or 37°C (for S. aureus) for 20 h under agitation at 125 rpm. Once biofilms formed, the lids were removed from the plates and the pegs were rinsed twice with phosphate buffered saline (PBS) to remove planktonic cells. The peg-lid was then transferred to a 96-well challenge microtiter plate, each well containing 200 µl of a twofold serial dilution of each peptide in LB medium. The challenge plate was incubated at 37°C for 2 hours. Peptide activity on pre-formed biofilm was evaluated by two independent methods: (i) visual observation of bacterial growth and (ii) counting of living bacterial cells after peptide treatment. In the first case, the peg-lid was removed from the challenge plate, rinsed with PBS and used to cover a 96-well recovery microtiter plate, each well containing 200 µl LB medium. The recovery plate was sealed, incubated at 37°C for 4 hours and then observed for any visible growth of bacteria detached from the peptide-treated biofilm. Growth of bacteria in a particular well indicated regrowth of planktonic cells from surviving biofilm. Minimum biofilm eradication concentration (MBEC) was defined as the minimum peptide concentration preventing regrowth of bacteria from the treated biofilm within 4 hours.

[3] = biological target: T1, Pseudomonas aeruginosa elastase (Pseudomonas aeruginosa, UniProt P14756); assay type: in vitro ADME; settings: 1 mM CaCl2 pH 7.8, 37°C; for stability to elastase (in words): HPLC and MS
T1 construct: purchased Calbiochem
T1 sequence (P14756 198-498): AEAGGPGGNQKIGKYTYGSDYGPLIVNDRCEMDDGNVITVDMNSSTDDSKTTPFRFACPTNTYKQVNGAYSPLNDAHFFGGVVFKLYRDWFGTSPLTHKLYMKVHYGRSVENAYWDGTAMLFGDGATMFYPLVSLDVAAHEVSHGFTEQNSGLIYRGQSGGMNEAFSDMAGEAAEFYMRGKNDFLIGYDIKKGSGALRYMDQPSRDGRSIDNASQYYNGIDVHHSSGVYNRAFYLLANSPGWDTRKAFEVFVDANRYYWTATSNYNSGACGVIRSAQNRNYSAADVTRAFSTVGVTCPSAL
Description: (§4) Tetrabranched M33-L or M33-D peptides (300 µg) were incubated at 37°C with Staphylococcus aureus aureolysin (3 µg, BioCol GmbH) or Pseudomonas aeruginosa elastase (3 µg, Calbiochem) in 300 µl 20 mM Tris-HCl, 1 mM CaCl2 pH 7.8. At indicated time intervals, 50 µl aliquots were removed, diluted with 950 µl of 0.1% trifluoroacetic acid (TFA)/water and analyzed by HPLC and mass spectrometry. Liquid chromatography was performed on Phenomenex Jupiter C18 analytical column (300 Å, 5 µm, 250×4.6 mm) in a 30 min gradient, using TFA 0.1%/water as solvent A and methanol as solvent B. Mass spectrometry analysis was performed on withdrawn samples and repeated on HPLC-eluted peaks with a Bruker Daltonic ultraflex MALDI TOF/TOF mass spectrometer.

[4] = biological target: T2, Staphylococcus aureus aureolysin (Staphylococcus aureus, UniProt P81177); assay type: in vitro ADME; settings: 1 mM CaCl2 pH 7.8, 37°C; for time of stability / degradation on incubation with aureolysin: 300 µg peptide + 3 µg S. aureus aureolysin in 300 µl 20 mM Tris-HCl, HPLC and MALDI MS read-out
T2 construct: purchased BioCol GmbH
T2 sequence (P81177 209-509): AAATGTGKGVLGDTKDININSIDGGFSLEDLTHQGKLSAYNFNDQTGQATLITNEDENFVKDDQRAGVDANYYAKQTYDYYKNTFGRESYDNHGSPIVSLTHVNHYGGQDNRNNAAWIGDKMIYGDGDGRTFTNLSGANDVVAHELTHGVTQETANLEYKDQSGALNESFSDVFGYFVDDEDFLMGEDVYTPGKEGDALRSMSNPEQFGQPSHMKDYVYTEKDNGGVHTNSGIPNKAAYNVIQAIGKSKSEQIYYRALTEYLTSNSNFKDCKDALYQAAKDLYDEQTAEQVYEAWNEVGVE
Description: as §4

[5] = test system: E. coli ATCC 25922 biofilm; assay type: cell-based, Escherichia coli; settings: ATCC 25922, 2 h
Description: as §2

[6] = test system: E. coli ATCC 25922 biofilm; assay type: cell-based, Escherichia coli; settings: ATCC 25922, 20 h
Description: as §3, with “Growth of bacteria in a particular well indicated regrowth of planktonic cells from surviving biofilm. Minimum biofilm eradication concentration (MBEC) was defined as the minimum peptide concentration preventing regrowth of bacteria from the treated biofilm within 4 hours.” left out

[7] = test system: P. aeruginosa ATCC 27853 biofilm; assay type: cell-based, Pseudomonas aeruginosa; settings: ATCC 27853, 20 h
Description: as §3, with “Growth of bacteria in a particular well indicated regrowth of planktonic cells from surviving biofilm. Minimum biofilm eradication concentration (MBEC) was defined as the minimum peptide concentration preventing regrowth of bacteria from the treated biofilm within 4 hours.” left out

[8] = test system: P. aeruginosa ATCC 27853 biofilm; assay type: cell-based, Pseudomonas aeruginosa; settings: ATCC 27853, 2 h
Description: as §2

P.aeruginosa AV 65 = assay type: cell-based, Pseudomonas aeruginosa
Description: as §1

[9] = 300 µg peptide + 3 µg P. aeruginosa elastase, 20 mM Tris-HCl

Row | SMILES | MIC (E.coli W03BG0025) | MIC (S.aureus 3851) | MIC (S.aureus USA 300) | MIC (E.coli ATCC 25922) | Minimum bactericidal concentration on biofilm (MBCb) [1] | Minimum biofilm eradication concentration (MBEC) [2] | time of resistance to degradation by elastase ([3]; 300 µg peptide + 3 µg P. aeruginosa elastase in 300 µl 20 mM Tris-HCl, HPLC and MALDI MS read-out) | stability to elastase (in words) [3, 9] | time of stability / degradation on incubation with aureolysin [4] | Minimum bactericidal concentration on biofilm (MBCb) [5] | Minimum biofilm eradication concentration (MBEC) [6] | Minimum biofilm eradication concentration (MBEC) [7] | Minimum bactericidal concentration on biofilm (MBCb) [8] | MIC (P.aeruginosa AV 65) | activity in biofilm eradication experiments with respect to M33-D ([2]; S. aureus biofilm eradication, relative to M33-D) | stability after 5 h incubation with elastase (in words) ([3]; 5 h, 300 µg peptide + 3 µg P. aeruginosa elastase, 20 mM Tris-HCl, HPLC peak of intact peptide still present) | stability to aureolysin (in words) ([4]; 300 µg peptide + 3 µg S. aureus aureolysin, 20 mM Tris-HCl, HPLC and MS)
1 | CC[C@@H](C)[C@@H](NC(=O)[C@@H](CCCCN)NC(=O)[C@H](N)CCCCN)C(=O)N[C@H](CCCNC(=N)N)C(=O)N[C@@H](C(=O)N[C@H](CCCNC(=N)N)C(=O)N[C@H](CC(C)C)C(=O)N[C@H](CO)C(=O)N[C@H](C)C(=O)NCCCC[C@H](NC(=O)[C@@H](C)NC(=O)[C@@H](CO)NC(=O)[C@@H](CC(C)C)NC(=O)[C@@H](CCCNC(=N)N)NC(=O)[C@H](NC(=O)[C@@H](CCCNC(=N)N)NC(=O)[C@H](NC(=O)[C@@H](CCCCN)NC(=O)[C@H](N)CCCCN)[C@H](C)CC)C(C)C)C(=O)NCCCC[C@H](NC(=O)[C@H](CCCCNC(=O)[C@@H](C)NC(=O)[C@@H](CO)NC(=O)[C@@H](CC(C)C)NC(=O)[C@@H](CCCNC(=N)N)NC(=O)[C@H](NC(=O)[C@@H](CCCNC(=N)N)NC(=O)[C@H](NC(=O)[C@@H](CCCCN)NC(=O)[C@H](N)CCCCN)[C@H](C)CC)C(C)C)NC(=O)[C@@H](C)NC(=O)[C@@H](CO)NC(=O)[C@@H](CC(C)C)NC(=O)[C@@H](CCCNC(=N)N)NC(=O)[C@H](NC(=O)[C@@H](CCCNC(=N)N)NC(=O)[C@H](NC(=O)[C@@H](CCCCN)NC(=O)[C@H](N)CCCCN)[C@H](C)CC)C(C)C)C(=O)NCCC(=O)O)C(C)C [M33-D] (I: H-[dK][dK][dI][dR][dV][dR][dL][dS][dA]KK[βAla]-OH / II: H-[dK][dK][dI][dR][dV][dR][dL][dS][dA]K / III: H-[dK][dK][dI][dR][dV][dR][dL][dS][dA] / IV: H-[dK][dK][dI][dR][dV][dR][dL][dS][dA]; amide I:10-IV:C, I:11-II:C, II:10-III:C; N-terminus assumed) | 3 µM (≈ 14 µg/mL) | 0.7 µM (≈ 3.28 µg/mL) | 1.5 µM (≈ 7.02 µg/mL) | 3 µM (≈ 14 µg/mL) | 1.5 µM (≈ 7.02 µg/mL) | 1.5 µM | ≥ 24 h | highly stable | ≥ 24 h | 6 µM (≈ 28.1 µg/mL) | 3 µM | 3 µM | 6 µM (≈ 28.1 µg/mL) | 3 µM (≈ 14 µg/mL) |  |  | 
2 | CC[C@H](C)[C@H](NC(=O)[C@H](CCCCN)NC(=O)[C@@H](N)CCCCN)C(=O)N[C@@H](CCCNC(=N)N)C(=O)N[C@H](C(=O)N[C@@H](CCCNC(=N)N)C(=O)N[C@@H](CC(C)C)C(=O)N[C@@H](CO)C(=O)N[C@@H](C)C(=O)NCCCC[C@H](NC(=O)[C@H](C)NC(=O)[C@H](CO)NC(=O)[C@H](CC(C)C)NC(=O)[C@H](CCCNC(=N)N)NC(=O)[C@@H](NC(=O)[C@H](CCCNC(=N)N)NC(=O)[C@@H](NC(=O)[C@H](CCCCN)NC(=O)[C@@H](N)CCCCN)[C@@H](C)CC)C(C)C)C(=O)NCCCC[C@H](NC(=O)[C@H](CCCCNC(=O)[C@H](C)NC(=O)[C@H](CO)NC(=O)[C@H](CC(C)C)NC(=O)[C@H](CCCNC(=N)N)NC(=O)[C@@H](NC(=O)[C@H](CCCNC(=N)N)NC(=O)[C@@H](NC(=O)[C@H](CCCCN)NC(=O)[C@@H](N)CCCCN)[C@@H](C)CC)C(C)C)NC(=O)[C@H](C)NC(=O)[C@H](CO)NC(=O)[C@H](CC(C)C)NC(=O)[C@H](CCCNC(=N)N)NC(=O)[C@@H](NC(=O)[C@H](CCCNC(=N)N)NC(=O)[C@@H](NC(=O)[C@H](CCCCN)NC(=O)[C@@H](N)CCCCN)[C@@H](C)CC)C(C)C)C(=O)NCCC(=O)O)C(C)C [M33-L] (I: H-KKIRVRLSAKK[βAla]-OH / II: H-KKIRVRLSAK / III: H-KKIRVRLSA / IV: H-KKIRVRLSA; amide I:10-IV:C, I:11-II:C, II:10-III:C; N-terminus assumed) | 0.7 µM (≈ 3.28 µg/mL) | 12 µM (≈ 56.2 µg/mL) | 6 µM (≈ 28.1 µg/mL) | 3 µM (≈ 14 µg/mL) | 12 µM (≈ 56.2 µg/mL) | 12 µM |  | poorly stable | ≤ 1 h | 6 µM (≈ 28.1 µg/mL) | 3 µM | 1.5 µM | 6 µM (≈ 28.1 µg/mL) | 3 µM (≈ 14 µg/mL) | 12% | moderate peptide stability | not at all stable
